Measured values published in patent US20240254118A1, “PRMT5 INHIBITORS AND USES THEREOF” (Gilead Sciences, Inc., priority 2022, published 2024).
pEC50: −log10 of the molar value.

Key:
[1] = test system: HCT116 MTAP-deleted cells; assay: Cell viability assay (CellTiter-Glo, 7 days), HCT116 MTAP-deleted; details: Homo sapiens, HCT-116, 168 h
[2] = test system: SDMA signal (PRMT5 inhibition) in HCT116 MTAP-deleted cells; assay: Symmetric di-methyl arginine image-based high content screen assay (SDMA assay), HCT116 MTAP-deleted; type: cell-based; details: SDMA assay; for pEC50: Homo sapiens, HCT-116, 72 h, 3 days of treatment, cell line not given, taken as HCT116 MTAP-deleted, read-out: EC50 (SDMA assay); for EC50 selectivity (SDMA assay): taken as HCT116 WT versus MTAP-deleted
Outline: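 Read-out: per-cell mean SDMA immunofluorescence (Alexa Fluor 488 secondary), cells segmented by DAPI on a high-content imager. Compound exposure in HCT116 MTAP-deleted cells lasted until fixation on Day 3; overnight 4° C primary anti-SDMA antibody staining.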

Row | SMILES | pEC50 [2] | EC50 selectivity (SDMA assay) [2] | CC50 [1]
1 | CCN(C(=O)C1CC1)N(Cc1ccc(C(F)(F)F)cn1)C(=O)c1ccc2nc(N)c3cnn(C)c3c2c1 [Example 288, 4-amino-N′-(cyclopropanecarbonyl)-N′-ethyl-1-methyl-N-((5-(trifluoromethyl)pyridin-2-yl)methyl)-1H-pyrazolo[4,3-c]quinoline-8-carbohydrazide] | > 9.00 | 267 | < 100 nM
2 | CC(=O)N(C)N(Cc1cccc2c1nnn2C)C(=O)c1ccc2nc(N)c3cnn(C)c3c2c1 [Example 289, N′-acetyl-4-amino-N′,1-dimethyl-N-((1-methyl-1H-benzo[d][1,2,3]triazol-4-yl)methyl)-1H-pyrazolo[4,3-c]quinoline-8-carbohydrazide] | 8.30 to 9.00 | 155 | 100 to 1000 nM
3 | Cn1ncc2c(N)nc3ccc(C(=O)N(Cc4ccc(C(F)(F)F)cn4)N4CCOCC4(C)C)cc3c21 [Example 292, 4-amino-N-(3,3-dimethylmorpholino)-1-methyl-N-((5-(trifluoromethyl)pyridin-2-yl)methyl)-1H-pyrazolo[4,3-c]quinoline-8-carboxamide] | 8.30 to 9.00 | 80 | 100 to 1000 nM
4 | Cn1ncc2c(N)nc3ccc(C(=O)N(Cc4ccc(C(F)(F)F)cn4)N4C[C@@H]5C[C@H]4CO5)cc3c21 [Example 297, 4-amino-N-((1S,4S)-2-oxa-5-azabicyclo[2.2.1]heptan-5-yl)-1-methyl-N-((5-(trifluoromethyl)pyridin-2-yl)methyl)-1H-pyrazolo[4,3-c]quinoline-8-carboxamide] | 8.30 to 9.00 | 151 | 100 to 1000 nM
5 | Cn1ncc2c(N)nc3cc(F)c(C(=O)N(Cc4ccc(C(F)(F)F)cn4)N4C[C@@H]5C[C@H]4CO5)cc3c21 [Example 298, 4-amino-N-((1S,4S)-2-oxa-5-azabicyclo[2.2.1]heptan-5-yl)-7-fluoro-1-methyl-N-((5-(trifluoromethyl)pyridin-2-yl)methyl)-1H-pyrazolo[4,3-c]quinoline-8-carboxamide] | > 9.00 | 23 | < 100 nM
6 | Cn1ncc2c(N)nc3ccc(C(=O)N(Cc4ccc(C(F)(F)F)cn4)N4C[C@H]5C[C@@H]4CO5)cc3c21 [Example 299, 4-amino-N-((1R,4R)-2-oxa-5-azabicyclo[2.2.1]heptan-5-yl)-1-methyl-N-((5-(trifluoromethyl)pyridin-2-yl)methyl)-1H-pyrazolo[4,3-c]quinoline-8-carboxamide] | > 9.00 | 144 | < 100 nM
7 | Cn1ncc2c(N)nc3cc(F)c(C(=O)N(Cc4ccc(C(F)(F)F)cn4)N4C[C@H]5C[C@@H]4CO5)cc3c21 [Example 300, 4-amino-N-((1R,4R)-2-oxa-5-azabicyclo[2.2.1]heptan-5-yl)-7-fluoro-1-methyl-N-((5-(trifluoromethyl)pyridin-2-yl)methyl)-1H-pyrazolo[4,3-c]quinoline-8-carboxamide] | > 9.00 | 24 | < 100 nM
8 | CN(C(=O)C1CC1)N(Cc1cccc2c1OC(F)(F)O2)C(=O)c1cc2c(cc1F)nc(N)c1cnn(C)c12 [Example 303, 4-amino-N′-(cyclopropanecarbonyl)-N-((2,2-difluorobenzo[d][1,3]dioxol-4-yl)methyl)-7-fluoro-N′,1-dimethyl-1H-pyrazolo[4,3-c]quinoline-8-carbohydrazide] | > 9.00 | 58 | < 100 nM
9 | Cn1ncc2c(N)nc3ccc(C(=O)N(Cc4ccc(C(F)(F)F)cn4)NC(=O)C4(F)CC4)cc3c21 [Example 308, 4-amino-N′-(1-fluorocyclopropane-1-carbonyl)-1-methyl-N-((5-(trifluoromethyl)pyridin-2-yl)methyl)-1H-pyrazolo[4,3-c]quinoline-8-carbohydrazide] | > 9.00 | 122 | < 100 nM
10 | Cn1ncc2c(N)nc3cc(F)c(C(=O)N(Cc4ccc(C(F)(F)F)cn4)N4C[C@H]5CC[C@@H](C4)O5)cc3c21 [Example 309, 4-amino-N-((1R,5S)-8-oxa-3-azabicyclo[3.2.1]octan-3-yl)-7-fluoro-1-methyl-N-((5-(trifluoromethyl)pyridin-2-yl)methyl)-1H-pyrazolo[4,3-c]quinoline-8-carboxamide] | 8.30 to 9.00 | 52 | < 100 nM

Now from value to compound, other results behind:

Row | pEC50 [2] | EC50 selectivity (SDMA assay) [2] | SMILES | CC50 [1]
11 | > 9.00 | 80 | CN(C(=O)C1CC1)N(Cc1ccc2c(c1)OC(F)(F)O2)C(=O)c1ccc2nc(N)c3cnn(C)c3c2c1 [Example 283, 4-amino-N′-(cyclopropanecarbonyl)-N-((2,2-difluorobenzo[d][1,3]dioxol-5-yl)methyl)-N′,1-dimethyl-1H-pyrazolo[4,3-c]quinoline-8-carbohydrazide] | < 100 nM
12 | > 9.00 | 16 | CCN(C(=O)C1CC1)N(Cc1ccc(C(F)(F)F)cn1)C(=O)c1cc2c(cc1F)nc(N)c1cnn(C)c12 [Example 286, 4-amino-N′-(cyclopropanecarbonyl)-N′-ethyl-7-fluoro-1-methyl-N-((5-(trifluoromethyl)pyridin-2-yl)methyl)-1H-pyrazolo[4,3-c]quinoline-8-carbohydrazide] | < 100 nM
13 | 8.30 to 9.00 | 174 | CCC(=O)N(CC)N(Cc1ccc(C(F)(F)F)cn1)C(=O)c1ccc2nc(N)c3cnn(C)c3c2c1 [Example 287, 4-amino-N′-ethyl-1-methyl-N′-propionyl-N-((5-(trifluoromethyl)pyridin-2-yl)methyl)-1H-pyrazolo[4,3-c]quinoline-8-carbohydrazide] | < 100 nM
14 | > 9.00 | 9 | C[C@@H]1CN(N(Cc2ccc(C(F)(F)F)cn2)C(=O)c2cc3c(cc2F)nc(N)c2cnn(C)c23)C[C@H](C)O1 [Example 293, 4-amino-N-((2S,6R)-2,6-dimethylmorpholino)-7-fluoro-1-methyl-N-((5-(trifluoromethyl)pyridin-2-yl)methyl)-1H-pyrazolo[4,3-c]quinoline-8-carboxamide] | < 100 nM
15 | > 9.00 | 97 | Cn1ncc2c(N)nc3cc(F)c(C(=O)N(Cc4ccc(C(F)(F)F)cn4)NC(=O)C4(F)CC4)cc3c21 [Example 294, 4-amino-7-fluoro-N′-(1-fluorocyclopropane-1-carbonyl)-1-methyl-N-((5-(trifluoromethyl)pyridin-2-yl)methyl)-1H-pyrazolo[4,3-c]quinoline-8-carbohydrazide] | < 100 nM
16 | > 9.00 | 18 | Cn1ncc2c(N)nc3ccc(C(=O)N(Cc4ccc(C(F)(F)F)cn4)n4ccc5cccnc54)cc3c21 [Example 295, 4-amino-1-methyl-N-(1H-pyrrolo[2,3-b]pyridin-1-yl)-N-((5-(trifluoromethyl)pyridin-2-yl)methyl)-1H-pyrazolo[4,3-c]quinoline-8-carboxamide] | < 100 nM
17 | > 9.00 | 27 | Cn1ncc2c(N)nc3cc(F)c(C(=O)N(Cc4ccc(C(F)(F)F)cn4)n4ccc5cccnc54)cc3c21 [Example 296, 4-amino-7-fluoro-1-methyl-N-(1H-pyrrolo[2,3-b]pyridin-1-yl)-N-((5-(trifluoromethyl)pyridin-2-yl)methyl)-1H-pyrazolo[4,3-c]quinoline-8-carboxamide] | < 100 nM
18 | > 9.00 | 106 | CC(=O)N(C)N(Cc1cccc2c1OC(F)(F)O2)C(=O)c1cc2c(cc1F)nc(N)c1cnn(C)c12 [Example 301, N′-acetyl-4-amino-N-((2,2-difluorobenzo[d][1,3]dioxol-4-yl)methyl)-7-fluoro-N′,1-dimethyl-1H-pyrazolo[4,3-c]quinoline-8-carbohydrazide] | < 100 nM
19 | 8.30 to 9.00 | 248 | CN(C(=O)C1CC1)N(Cc1cccc2c1OC(F)(F)O2)C(=O)c1ccc2nc(N)c3cnn(C)c3c2c1 [Example 302, 4-amino-N′-(cyclopropanecarbonyl)-N-((2,2-difluorobenzo[d][1,3]dioxol-4-yl)methyl)-N′,1-dimethyl-1H-pyrazolo[4,3-c]quinoline-8-carbohydrazide] | < 100 nM
20 | 8.30 to 9.00 | 15 | CN(C(=O)C1CC1)N(Cc1ccc(C(F)(F)F)cn1)C(=O)c1cc2c(cc1Cl)nc(N)c1cnn(C)c12 [Example 304, 4-amino-7-chloro-N′-(cyclopropanecarbonyl)-N′,1-dimethyl-N-((5-(trifluoromethyl)pyridin-2-yl)methyl)-1H-pyrazolo[4,3-c]quinoline-8-carbohydrazide] | < 100 nM
21 | > 9.00 | 75 | [2H]C1([2H])C([2H])([2H])C1([2H])C(=O)N(C)N(Cc1ccc(C(F)(F)F)cn1)C(=O)c1ccc2nc(N)c3cnn(C)c3c2c1 [Example 305, 4-amino-N′-(cyclopropane-1-carbonyl-d5)-N′,1-dimethyl-N-((5-(trifluoromethyl)pyridin-2-yl)methyl)-1H-pyrazolo[4,3-c]quinoline-8-carbohydrazide] | < 100 nM
22 | > 9.00 | 359 | CC(=O)N(C)N(Cc1cccc2c1OC(F)(F)O2)C(=O)c1ccc2nc(N)c3cnn(C)c3c2c1 [Example 307, N′-acetyl-4-amino-N-((2,2-difluorobenzo[d][1,3]dioxol-4-yl)methyl)-N′,1-dimethyl-1H-pyrazolo[4,3-c]quinoline-8-carbohydrazide] | < 100 nM
